# Experimental data as given in PMC9864514, “Evaluation of the Local Anesthetic Activity, Acute Toxicity, and Structure–Toxicity Relationship in Series of Synthesized 1-Aryltetrahydroisoquinoline Alkaloid Derivatives In Vivo and In Silico” (Molecules, 2023).
# Entries after “also recorded” stand apart in the source; their conditions may differ.
# Key:
# Assay type in all cases: in vivo
# rabbit eye cornea = assay: Local anesthetic activity, rabbit eye cornea terminal anesthesia test
# Method: Local anesthetic activity was evaluated using the rabbit eye cornea terminal anesthesia test on 2.0–2.5 kg male chinchilla rabbits after introduction of total 0.4 mL (0.2 mL twice with an interval of 30 s) of 1.0 % solutions of the studied substances. Lidocaine was used as an etalon drug. Each substance was tested on three rabbits.
# white mice = assay: Acute toxicity and resorptive action in white mice, intragastric administration; details: intragastric, relative to parent compound 3a
# Method: (§1) The acute toxicity and resorptive action were determined in white mice weighing 20–24 g by gradual oral administration at doses of 1–5000 mg/kg.
# (§2) The animals were kept under standard nursery conditions with a natural 12-h light-dark cycle, at an air temperature of 20 ± 2 °C. The animals had unlimited access to food and water. The experiments were performed in accordance with the International Convention for the Protection of Vertebrate Animals used for Experimental and Scientific Purposes (Strasbourg, 1986). Each substance was tested on 10 mice and LD50 was determined graphically by the well-known Litchfield–Wilcoxon method.
# [1] = as above; details: mouse, in vivo, po, intragastric administration, N = 10, Litchfield–Wilcoxon
# Method: as §1, §2
# [2] = rabbit corneal model, 1% aqueous solution
smiles,measurement,setting,value
"COc1cc2c(cc1OC)C(c1ccc(N)cc1)NCC2 (stereo not drawn) [Compound 4a, 1-(4′-Aminophenyl)-6,7-dimethoxy-1,2,3,4-tetrahydroisoquinoline]",Onset of Anesthesia,rabbit eye cornea; [2],2.0 ± 0.7 min
same,Total Duration of Anesthesia,rabbit eye cornea; [2],25.0 ± 4.0 min
same,Duration of Complete Anesthesia,"rabbit eye cornea; rabbit corneal model, 1% aqueous solution, percentage of the anesthetic activity of lidocaine (=100%)",+40%
same,Local irritant effects on rabbit eyes,"rabbit eye cornea; rabbit eyes, concentrations studied",eye irritation and redness; also recorded: reversible irritation and redness of the eyes
same,Decrease of acute toxicity compared with 3a,white mice,3.75 fold
same,LD50,[1],1050 mg/kg
